Data taken from ChEMBL document CHEMBL1201862, “PubChem BioAssay data set” (2004).
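96-well plates; 48 h exposure; 5 concentrations. Endpoints by linear interpolation between flanking doses. Not reached: highest tested concentration assigned. GI50 marks 50% less growth.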 The source made the active and inactive calls. No stated cut-off is given here; in the data, active = GI50 up to about 1.1 µM and inactive = higher.

Assays:
Test in all cases: DTP human tumour cell line panel, 48 h
ACHN = tested on: ACHN
CAKI-1 = tested on: CAKI-1
HCC 2998 = tested on: HCC 2998
LOX IMVI = tested on: LOX IMVI
M14 = tested on: M14
MOLT-4 = tested on: MOLT-4
Malme-3M = tested on: Malme-3M
NCI-H226 = tested on: NCI-H226
RXF 393 = tested on: RXF 393
SF-268 = tested on: SF-268
SF-295 = tested on: SF-295
SF-539 = tested on: SF-539
SK-MEL-5 = tested on: SK-MEL-5
SK-OV-3 = tested on: SK-OV-3
SW-620 = tested on: SW-620
U-251 = tested on: U-251
UO-31 = tested on: UO-31

Measured: GI50

C[C@]12CC[C@H](OC(=O)Cc3ccc(N(CCCl)CCCl)cc3)CC1CC[C@@H]1C2CC[C@]2(C)NC(=O)CCC12 (some centres not stated)
inactive: ACHN 4.04 µM | CAKI-1 3.92 µM | HCC 2998 18.7 µM | LOX IMVI 13.2 µM | M14 13.2 µM | MOLT-4 3.08 µM | Malme-3M 15.8 µM | NCI-H226 15.5 µM | RXF 393 7.74 µM | SF-268 9.64 µM | SF-295 11.8 µM | SF-539 3.5 µM | SK-MEL-5 15.6 µM | SK-OV-3 17 µM | SW-620 9.33 µM | U-251 11.2 µM | UO-31 29.3 µM

O=C1CC2CCCC23CC2(CCN13)OCCO2 (configuration not stated)
inactive: ACHN > 100 µM | CAKI-1 > 100 µM | HCC 2998 > 100 µM | LOX IMVI > 100 µM | M14 > 100 µM | MOLT-4 > 100 µM | Malme-3M > 100 µM | NCI-H226 > 100 µM | RXF 393 > 100 µM | SF-268 > 100 µM | SF-295 > 100 µM | SF-539 > 100 µM | SK-MEL-5 > 100 µM | SK-OV-3 > 100 µM | SW-620 > 100 µM | U-251 > 100 µM | UO-31 > 100 µM

CCN(CC)CCCCC1CCN(CC(=O)N2c3ccccc3NC(=O)CC2C)CC1 (configuration not stated)
inactive: ACHN > 100 µM | CAKI-1 > 100 µM | HCC 2998 > 100 µM | LOX IMVI 19.4 µM | M14 > 100 µM | MOLT-4 > 100 µM | Malme-3M > 100 µM | NCI-H226 > 100 µM | RXF 393 76.7 µM | SF-268 > 100 µM | SF-295 > 100 µM | SF-539 > 100 µM | SK-MEL-5 98.4 µM | SK-OV-3 > 100 µM | SW-620 > 100 µM | U-251 > 100 µM | UO-31 > 100 µM

COc1ccc(C(=O)C2=NON3OC23C(=O)c2ccc(OC)cc2)cc1 (configuration not stated)
inactive: ACHN 17.5 µM | CAKI-1 2.81 µM | HCC 2998 18.1 µM | LOX IMVI 5.58 µM | M14 15.4 µM | MOLT-4 2.59 µM | Malme-3M 12.9 µM | NCI-H226 16.8 µM | RXF 393 4.09 µM | SF-268 18.8 µM | SF-295 19.2 µM | SF-539 10.3 µM | SK-MEL-5 14.1 µM | SK-OV-3 19.5 µM | SW-620 3.31 µM | U-251 16 µM | UO-31 14.1 µM

CC1=NN(C(=O)CC(=O)N(C(=O)c2ccccc2Cl)c2ccc(C)cc2)C(=O)C1/N=N/c1ccc([N+](=O)[O-])cc1 (configuration not stated)
inactive: ACHN > 53.7 µM | CAKI-1 > 100 µM | HCC 2998 > 100 µM | LOX IMVI 23.9 µM | M14 > 96.2 µM | MOLT-4 > 100 µM | Malme-3M > 100 µM | NCI-H226 > 76 µM | RXF 393 23.4 µM | SF-268 44.6 µM | SF-295 58.5 µM | SF-539 23.7 µM | SK-MEL-5 99.1 µM | SK-OV-3 31.8 µM | SW-620 > 39.2 µM | U-251 19.6 µM | UO-31 44 µM

Cc1cc(C)c2[s+]snc2c1
inactive: ACHN > 100 µM | CAKI-1 93.8 µM | HCC 2998 > 100 µM | LOX IMVI 37.8 µM | M14 37.8 µM | MOLT-4 33.9 µM | Malme-3M > 100 µM | NCI-H226 > 100 µM | RXF 393 37.4 µM | SF-268 60.5 µM | SF-295 > 100 µM | SF-539 70 µM | SK-MEL-5 > 100 µM | SK-OV-3 > 100 µM | SW-620 37.6 µM | U-251 48.9 µM | UO-31 39.5 µM
